Test system: 313798-341-R-J2-PDC spheroids, viability
Assay: Anticancer human tumor 313798-341-R-J2-PDC patient-derived cervical squamous cell carcinoma cell line growth inhibition [PI3K]
Conditions: spheroids with HUVEC and MSC; for IC50: curve of first compound; for viability, T/C: stronger effect = lower value
Method in brief: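 Combination activity was assessed by viability in multicellular tumor spheroids carrying HUVEC and MSC components. Agents were tested with PI3K inhibitors from a Cmax-based top dose (or 10 microM) downward in half-log increments.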
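Note: spheroids exposed to compounds for seven days.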
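Throughout, for viability, T/C: 100% = DMSO vehicle control viability.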

Q: Which results are given for `CC1(C)CCC(Nc2ncc(C(F)(F)F)c(-c3c[nH]c4c(P(C)(C)=O)c(C#N)ccc34)n2)CN1` (configuration not stated) + Cc1nc(NC(=O)N2CCCC2C(N)=O)sc1-c1ccnc(C(C)(C)C(F)(F)F)c1?
A: IC50 (second compound 0.0316 µM): > 10000 nM; IC50 (second compound 0.1 µM): > 10000 nM; IC50 (second compound 0.316 µM): < 31.6 nM; IC50 (second compound 1 µM): < 31.6 nM; IC50 (second compound 3.16 µM): < 31.6 nM; IC50 (second compound 10 µM): < 31.6 nM; viability, T/C (second compound 0.0316 µM, first compound 0.0316 µM): 64.5%; viability, T/C (second compound 0.0316 µM, first compound 0.1 µM): 49.2%; viability, T/C (second compound 0.0316 µM, first compound 0.316 µM): 52.4%; viability, T/C (second compound 0.0316 µM, first compound 1 µM): 54.4%; viability, T/C (second compound 0.0316 µM, first compound 3.16 µM): 58.8%; viability, T/C (second compound 0.0316 µM, first compound 10 µM): 71.9%; viability, T/C (second compound 0.1 µM, first compound 0.0316 µM): 54.9%; viability, T/C (second compound 0.1 µM, first compound 0.1 µM): 50.8%; viability, T/C (second compound 0.1 µM, first compound 0.316 µM): 50.3%; viability, T/C (second compound 0.1 µM, first compound 1 µM): 53.1%; viability, T/C (second compound 0.1 µM, first compound 3.16 µM): 54.1%; viability, T/C (second compound 0.1 µM, first compound 10 µM): 66.6%; viability, T/C (second compound 0.316 µM, first compound 0.0316 µM): 45.7%; viability, T/C (second compound 0.316 µM, first compound 0.1 µM): 39.6%; viability, T/C (second compound 0.316 µM, first compound 0.316 µM): 35.5%; viability, T/C (second compound 0.316 µM, first compound 1 µM): 38.7%; viability, T/C (second compound 0.316 µM, first compound 3.16 µM): 43.8%; viability, T/C (second compound 0.316 µM, first compound 10 µM): 52.3%; viability, T/C (second compound 1 µM, first compound 0.0316 µM): 34.7%; viability, T/C (second compound 1 µM, first compound 0.1 µM): 32.2%; viability, T/C (second compound 1 µM, first compound 0.316 µM): 35.5%; viability, T/C (second compound 1 µM, first compound 1 µM): 34.2%; viability, T/C (second compound 1 µM, first compound 3.16 µM): 36%; viability, T/C (second compound 1 µM, first compound 10 µM): 33.7%; viability, T/C (second compound 3.16 µM, first compound 0.0316 µM): 27.9%; viability, T/C (second compound 3.16 µM, first compound 0.1 µM): 25%; viability, T/C (second compound 3.16 µM, first compound 0.316 µM): 23.7%; viability, T/C (second compound 3.16 µM, first compound 1 µM): 23.3%; viability, T/C (second compound 3.16 µM, first compound 3.16 µM): 26.2%; viability, T/C (second compound 3.16 µM, first compound 10 µM): 10.8%; viability, T/C (second compound 10 µM, first compound 0.0316 µM): 16.9%; viability, T/C (second compound 10 µM, first compound 0.1 µM): 18.7%; viability, T/C (second compound 10 µM, first compound 0.316 µM): 16.6%; viability, T/C (second compound 10 µM, first compound 1 µM): 17.8%; viability, T/C (second compound 10 µM, first compound 3.16 µM): 17.2%; viability, T/C (second compound 10 µM, first compound 10 µM): 1.7%
